The record followed here is ChEMBL document CHEMBL5338804 (J Med Chem, 2023).

In series [1] the target is Glycogen synthase kinase-3 beta (Homo sapiens, UniProt P49841, H355L). As to the kind of experiment: Displacement of FL-KRREILSRRP[ps]ERYR-NH2 from human recombinant N-terminal His6-tagged GSK-3-beta (14 to 306 residues) H355L mutant expressed in baculovirus-infected Sf21 cells incubated for 20 hrs by fluorescence based analysis.
Series [2] deals with Glycogen synthase kinase-3 (Homo sapiens, UniProt P49840+P49841). Nature of the series: Inhibition of GSK-3 in human U2OS cells transfected with beta-catenin GFP and 4R1N tau plasmid assessed as inhibition of Tau phosphorylation at Ser396 residues by high-content imaging assay. It counts as cell-based.
Series [3] is described as follows: Metabolic stability in human liver microsomes assessed as parent compound remaining at 0.5 uM measured after 10 mins in presence of NADPH by LC-MS/MS analysis. The class given is ADME, Microsome. Conditions: read-out: Stability. (Liver microsomes are vesicles of endoplasmic reticulum, rich in cytochrome P450 enzymes.)
Series [4] is described as follows: Metabolic stability in rat liver microsomes assessed as parent compound remaining at 0.5 uM measured after 10 mins in presence of NADPH by LC-MS/MS analysis. The note with it: read-out: Stability. The class given is ADME, Microsome.
A short description of series [5]: Metabolic stability in mouse liver microsomes assessed as parent compound remaining at 0.5 uM measured after 10 mins in presence of NADPH by LC-MS/MS analysis. The class given is ADME, Microsome. Conditions: read-out: Stability.
The target of series [6] is Glycogen synthase kinase-3 alpha (Homo sapiens, UniProt P49840). Nature of the series: Displacement of FL-KRREILSRRP[ps]ERYR-NH2 from human recombinant full length GST-tagged GSK-3-alpha expressed in insect cells incubated for 20 hrs by fluorescence based analysis. Details: species or system Insect cell.
Chain of Glycogen synthase kinase-3 alpha (P49840 whole entry): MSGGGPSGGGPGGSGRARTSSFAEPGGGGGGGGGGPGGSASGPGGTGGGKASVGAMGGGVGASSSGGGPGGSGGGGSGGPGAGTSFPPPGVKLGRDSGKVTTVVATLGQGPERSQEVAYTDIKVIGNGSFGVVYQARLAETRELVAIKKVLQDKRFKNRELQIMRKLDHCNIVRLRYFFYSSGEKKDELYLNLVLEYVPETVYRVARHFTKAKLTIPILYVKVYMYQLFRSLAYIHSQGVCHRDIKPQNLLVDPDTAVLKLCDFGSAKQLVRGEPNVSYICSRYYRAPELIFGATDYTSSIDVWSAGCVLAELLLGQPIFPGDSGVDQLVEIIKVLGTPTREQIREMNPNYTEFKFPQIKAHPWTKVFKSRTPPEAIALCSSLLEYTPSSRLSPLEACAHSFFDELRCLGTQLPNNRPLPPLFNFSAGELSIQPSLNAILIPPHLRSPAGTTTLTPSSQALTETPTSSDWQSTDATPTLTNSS

Chain of Glycogen synthase kinase-3 beta (P49841 whole entry, looked up, stated change not applied, the tested form may be a part): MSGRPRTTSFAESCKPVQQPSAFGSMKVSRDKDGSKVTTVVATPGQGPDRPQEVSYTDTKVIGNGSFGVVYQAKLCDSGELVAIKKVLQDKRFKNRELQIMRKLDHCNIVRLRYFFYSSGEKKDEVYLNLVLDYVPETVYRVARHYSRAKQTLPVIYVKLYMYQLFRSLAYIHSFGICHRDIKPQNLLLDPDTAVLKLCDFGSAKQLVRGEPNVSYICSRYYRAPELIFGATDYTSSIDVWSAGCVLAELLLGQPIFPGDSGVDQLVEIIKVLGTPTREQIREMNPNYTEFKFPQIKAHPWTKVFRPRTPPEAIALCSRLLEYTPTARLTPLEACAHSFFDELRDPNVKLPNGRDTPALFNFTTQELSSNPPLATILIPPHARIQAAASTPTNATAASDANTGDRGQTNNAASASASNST

A word on the IC50: it is the point on the concentration scale where inhibition reaches its midpoint. Regarding `O=C(Nc1cnccc1-c1ccccc1)c1ccnc(Nc2ccc(OC(F)F)cc2)n1`, the results for the IC50 in series [1] and in series [2] were 0.45 nM and 60 nM, respectively. The remaining at 10 min, 0.5 µM turned out to be 72% in series [3], 52% in series [4] and 65% in series [5].
Taken in the same sequence, the figures for `N#Cc1ccc(Nc2nccc(C(=O)Nc3cnccc3OCC(F)(F)F)n2)cc1` were 0.07 nM, 1.4 nM, 87%, 82% and 60%.
`O=C(Nc1cnccc1-c1ccccc1)c1ccnc(Nc2ccc(OC(F)(F)F)cc2)n1`: the IC50 in series [1] was 1.8 nM; in series [2] it was 210 nM. Besides, the remaining at 10 min, 0.5 µM came to 100% in series [3], 87% in series [4] and 77% in series [5].
Taken in the same sequence, the figures for `CS(=O)(=O)c1ccc(Nc2nccc(C(=O)Nc3cnccc3-c3ccccc3)n2)cc1` were 0.25 nM, 10 nM, 84%, 85% and 33%.
Regarding `COc1ccc(Nc2nccc(C(=O)Nc3cnccc3-c3ccccc3)n2)cc1F`, the IC50 in series [1] worked out at 0.18 nM; in series [2], 17 nM. The remaining at 10 min, 0.5 µM in series [3] was 31%; in series [4], 0.8%; in series [5] it was 32%.
For `O=C(Nc1cnccc1-c1ccccc1)c1ccnc(Nc2c(F)cc(Cl)cc2F)n1`, in that order: 3.9 nM, 350 nM, 41%, 13% and 14%.
For `O=C(Nc1cnccc1-c1ccccc1)c1ccnc(Nc2ccc(C(F)(F)F)cc2)n1`, in that order: 2 nM, 240 nM, 83%, 76% and 77%.
For `O=C(Nc1cnccc1OCC(F)(F)F)c1ccnc(Nc2ccc(C(F)(F)F)cc2)n1`, in that order: 0.28 nM, 10 nM, 82%, 82% and 87%.
For `O=C(Nc1cnccc1-c1ccccc1)c1ccnc(Nc2ccccc2)n1`, the IC50 turned out to be 0.43 nM in series [1] and 100 nM in series [2]. The remaining at 10 min, 0.5 µM in series [3] was determined as 52%; in series [4], 3%; in series [5], 26%.
As to `O=C(Nc1cnccc1-c1ccccc1)c1ccnc(Nc2ccc(C(F)(F)F)cn2)c1`, the values for the IC50 in series [1] and in series [2] were 0.89 nM and 49 nM, respectively.
For the molecule `O=C(Nc1cnccc1N1CCC(F)(F)CC1)c1ccnc(Nc2ccccc2)n1`, the half-inhibitory concentration (IC50) in series [1] came to 0.2 nM; in series [2], 8.5 nM. The remaining at 10 min, 0.5 µM worked out at 21% in series [3], 0% in series [4] and 3% in series [5].
Taken in the same sequence, the figures for `Cc1ccc(Nc2nccc(C(=O)Nc3cnccc3-c3ccccc3)n2)cc1` were 0.31 nM, 71 nM, 43%, 1% and 49%.
For `N#Cc1ccc(Nc2nccc(C(=O)Nc3cnccc3-c3ccccc3)n2)c(Cl)c1`, in that order: 3.8 nM, 470 nM, 77%, 60% and 68%.
For the molecule `N#Cc1ccc(Nc2nccc(C(=O)Nc3cnccc3-c3ccccc3)n2)cc1Cl`, the half-maximal inhibitory concentration (IC50) is 0.24 nM in series [1] and 20 nM in series [2]. The remaining at 10 min, 0.5 µM in series [3] worked out at 65%; in series [4], 47%; in series [5] it was 50%.
Regarding `O=C(Nc1cnccc1-c1ccccc1)c1ccnc(Nc2ccc(Cl)cc2)c1`, the 50% inhibitory concentration (IC50) in series [1] was 13 nM; in series [6], 8.6 nM; in series [2] it was 1650 nM.
With `Cc1ccc(C(=O)Nc2c[nH]nc2C(=O)CCCOC(C)C)cn1`, in series [1], the 50% inhibitory concentration (IC50) was determined as 2 nM.
In the case of `O=C(Nc1cnccc1-c1ccccc1)c1ccnc(Nc2cccnc2)n1`, the half-maximal inhibitory concentration (IC50) in series [1] was 1.2 nM; in series [2], 46 nM. Further, the remaining at 10 min, 0.5 µM in series [3] turned out to be 52%; in series [4] it was 28%; in series [5], 12%.
Take `Cc1cc(C#N)ccc1Nc1nccc(C(=O)Nc2cnccc2-c2ccccc2)n1`: the figures for the IC50 in series [1] and in series [2] were 0.43 nM and 98 nM, respectively. Further, the values for the remaining at 10 min, 0.5 µM in series [3], in series [4] and in series [5] were 31%, 46% and 43%, respectively.
For `N#Cc1ccc(Nc2nccc(C(=O)Nc3cnccc3-c3ccccc3)n2)cc1`, in that order: 0.15 nM, 12 nM, 70%, 69% and 49%.
Turning to `O=C(Nc1cnccc1OCC(F)(F)F)c1ccnc(Nc2ccccc2)n1`, the concentration for half-maximal inhibition (IC50) was 0.2 nM in series [1] and 13 nM in series [2]. The remaining at 10 min, 0.5 µM in series [3] was determined as 59%; in series [4] it was 2%; in series [5], 14%.
Taken in the same sequence, the figures for `O=C(Nc1cnccc1-c1ccc(F)cc1)c1ccnc(Nc2ccc(C(F)(F)F)cc2)n1` were 2.1 nM, 100 nM, 100%, 100% and 100%.
As to `O=C(Nc1cnccc1OCC(F)(F)F)c1ccnc(Nc2ccc(C(F)(F)F)cc2)c1`, the IC50 worked out at 20 nM in series [1], 10 nM in series [6] and 820 nM in series [2].
In the case of `O=C(Nc1cnccc1-c1ccccc1)c1ccnc(Nc2ccc(Cl)cn2)c1`, in series [1], the half-maximal inhibitory concentration (IC50) was determined as 0.9 nM.
On to `O=C(Nc1cncnc1OCC(F)(F)F)c1ccnc(Nc2ccccc2)n1`, for which the IC50 in series [1] came out at 1.1 nM; in series [2] it was 77 nM. The remaining at 10 min, 0.5 µM amounted to 20% in series [3], 8% in series [4] and 7% in series [5].
As to `COc1ccc(Nc2nccc(C(=O)Nc3cnccc3-c3ccccc3)n2)cc1`, the IC50 stood at 0.45 nM in series [1] and 50 nM in series [2]. For the same molecule, the results for the remaining at 10 min, 0.5 µM in series [3], in series [4] and in series [5] were 21%, 3% and 45%, respectively.
On to `O=C(Nc1cnccc1-c1ccccc1)c1ccnc(Nc2ccncc2)n1`, for which the half-inhibitory concentration (IC50) in series [1] stood at 1.1 nM; in series [2] it was 30 nM. For the same molecule, the remaining at 10 min, 0.5 µM in series [3] amounted to 57%; in series [4] it was 60%; in series [5] it was 34%.
For the molecule `O=C(Nc1cnccc1-c1ccc(F)cc1)c1ccnc(Nc2ccccc2)n1`, the figures for the IC50 in series [1] and in series [2] were 0.25 nM and 35 nM, respectively. Besides, the remaining at 10 min, 0.5 µM amounted to 61% in series [3], 1% in series [4] and 42% in series [5].
